“And” between values parts separate entries of the source, which are not always exact repeats. Equal entries are not always repeated. Records with an inconclusive call do not appear.

We go through 19 compounds from PubChem BioAssay AID266 (DTP/NCI, 2004).

For the experiment, the system named is Nude mice, LX-1 lung xenograft intrarenal, tumor weight T/C. In words: NCI In Vivo Anticancer Drug Screen. Data for tumor model Human Lung LX-1 Xenograft (intrarenal inoculation) in NU/NU BALB/C (nude) mice. The note with it: endpoint: mean tumor weight change, higher = larger tumour. As for the experimental part:
The antitumor activity of compounds was measured in mice bearing transplantable tumors. Survival or tumor size were measured and the results are expressed as the measurement made in the treated group (T) divided by the measurement made in the vehicle treated control group (C). The tumor model used in this assay is Human Lung LX-1 Xenograft (intrarenal inoculation) in NU/NU BALB/C (nude) mice

Where [1] appears, read: dose: 100.0 mg/kg/injection, schedule: Q01DX010 (sc), vehicle: saline.
The mark [2] stands for this setting: dose: 200.0 mg/kg/injection, schedule: Q01DX010 (sc), vehicle: saline.
Where [3] appears, read: dose: 50.0 mg/kg/injection, schedule: Q01DX010 (sc), vehicle: saline.

In the case of `COc1ccc2cc1Oc1ccc(cc1)C[C@H]1c3cc(c(OC)cc3CCN1C)Oc1c(OC)c(OC)cc3c1[C@H](C2)N(C)CC3`, the T/C reads like this: (dose: 100.0 mg/kg/injection, schedule: Q01DX010 (sc), vehicle: saline with Tween-80) 110 % of control; (dose: 200.0 mg/kg/injection, schedule: Q01DX010 (sc), vehicle: saline with Tween-80) 122 % of control.
For `N[C@H](C(=O)O)[C@@H]1CC(Cl)=NO1`, the T/C by setting is: (dose: 0.5 mg/kg/injection, schedule: Q01DX010 (sc), vehicle: saline) 44 % of control; (dose: 2.0 mg/kg/injection, schedule: Q01DX010 (sc), vehicle: saline) 223 % of control and 82 % of control; (dose: 2.0 mg/kg/injection, schedule: Q02DX005 (sc), vehicle: saline) 150 % of control; (dose: 4.0 mg/kg/injection, schedule: Q02DX005 (sc), vehicle: saline) 227 % of control; (dose: 8.0 mg/kg/injection, schedule: Q01DX010 (sc), vehicle: saline) 361 % of control; (dose: 8.0 mg/kg/injection, schedule: Q02DX005 (sc), vehicle: saline) 159 % of control. In addition, the T/C (dose: 16.0 mg/kg/injection, schedule: Q01DX010 (sc), vehicle: saline) was 63 % of control; the T/C (dose: 16.0 mg/kg/injection, schedule: Q02DX005 (sc), vehicle: saline) is 253 % of control; the T/C (dose: 32.0 mg/kg/injection, schedule: Q01DX010 (sc), vehicle: saline) is 35 % of control; the T/C (dose: 32.0 mg/kg/injection, schedule: Q02DX005 (sc), vehicle: saline) was 68 % of control.
For `CN=NN(C)C(=O)NC`, the T/C runs as follows: (dose: 6.25 mg/kg/injection, schedule: Q04DX003 (ip), vehicle: saline) 71 % of control and 82 % of control; (dose: 12.5 mg/kg/injection, schedule: Q04DX003 (ip), vehicle: saline) 28 % of control and 45 % of control; (dose: 25.0 mg/kg/injection, schedule: Q04DX003 (ip), vehicle: saline) 6 % of control; (dose: 50.0 mg/kg/injection, schedule: Q04DX003 (ip), vehicle: saline) -34 % of control and -18 % of control; (dose: 108.0 mg/kg/injection, schedule: Q04DX003 (ip), vehicle: saline) 5 % of control; (dose: 180.0 mg/kg/injection, schedule: Q04DX003 (ip), vehicle: saline) 4 % of control.
`CCOC1=Cc2c(oc3c(C(C)(C)C)cc(OCC)cc23)OC(C(C)(C)C)=C1`: the T/C is, setting by setting: (dose: 150.0 mg/kg/injection, schedule: Q04DX003 (sc), vehicle: saline with Tween-80) 92 % of control; (dose: 300.0 mg/kg/injection, schedule: Q04DX003 (sc), vehicle: saline with Tween-80) 101 % of control; (dose: 600.0 mg/kg/injection, schedule: Q04DX003 (sc), vehicle: saline with Tween-80) 102 % of control.
Consider `C[C@]12C=CC(=O)C=C1CC[C@@H]1[C@@H]2[C@@H](O)C[C@@]2(C)[C@H]1CC[C@]2(O)C(=O)CO`, for which the T/C (dose: 50.0 mg/kg/injection, schedule: Q01DX010 (sc), vehicle: Klucel (hydroxypropylcellulose) (HPC)) is 63 % of control.
Regarding `CC(=O)Oc1c[nH]c(=O)[nH]c1=O`, the T/C is 98 % of control (dose: 200.0 mg/kg/injection, schedule: Q04DX003 (sc), vehicle: distilled water + Tween-80); 76 % of control (dose: 400.0 mg/kg/injection, schedule: Q04DX003 (sc), vehicle: distilled water + Tween-80); 104 % of control (dose: 800.0 mg/kg/injection, schedule: Q04DX003 (sc), vehicle: distilled water + Tween-80).
Regarding `CN(C)N=Nc1ccc(S(N)(=O)=O)cc1`, the T/C was -13 % of control (dose: 100.0 mg/kg/injection, schedule: Q01DX010 (sc), vehicle: Klucel (hydroxypropylcellulose) (HPC)); 38 % of control and 61 % of control (dose: 100.0 mg/kg/injection, schedule: Q04DX003 (sc), vehicle: Klucel (hydroxypropylcellulose) (HPC)); -72 % of control (dose: 200.0 mg/kg/injection, schedule: Q01DX010 (sc), vehicle: Klucel (hydroxypropylcellulose) (HPC)); 3 % of control and 11 % of control (dose: 200.0 mg/kg/injection, schedule: Q04DX003 (sc), vehicle: Klucel (hydroxypropylcellulose) (HPC)); -100 % of control (dose: 400.0 mg/kg/injection, schedule: Q01DX010 (sc), vehicle: Klucel (hydroxypropylcellulose) (HPC)).
As for `[Na+]`, the T/C reads like this: (dose: 150.0 mg/kg/injection, schedule: Q04DX003 (ip), vehicle: water) 68 % of control; (dose: 600.0 mg/kg/injection, schedule: Q04DX003 (ip), vehicle: water) 82 % of control; (dose: 1200.0 mg/kg/injection, schedule: Q04DX003 (ip), vehicle: water) 79 % of control.
For `CS(C)=O`, the T/C is 88 % of control (dose: 750.0 mg/kg/injection, schedule: Q01DX010 (sc), vehicle: saline) and 67 % of control (dose: 6000.0 mg/kg/injection, schedule: Q01DX010 (sc), vehicle: saline).
On to `CN1c2c(nc(N)[nH]c2=O)NCC1CCNc1ccc(C(=O)NC(CCC(=O)O)C(=O)O)cc1` (stereo not given), for which the T/C by setting is: under setting [1], 56 % of control; under setting [2], 28 % of control; (dose: 400.0 mg/kg/injection, schedule: Q01DX010 (sc), vehicle: saline) 49 % of control; (dose: 800.0 mg/kg/injection, schedule: Q01DX010 (sc), vehicle: saline) 34 % of control.
Regarding `CC[C@H]1CN2CCc3cc(OC)c(OC)cc3[C@@H]2C[C@@H]1C[C@H]1NCCc2cc(OC)c(OC)cc21`, for the setting “dose: 4.0 mg/kg/injection, schedule: Q01DX010 (sc), vehicle: saline”, the T/C is 81 % of control.
Turning to `CSc1cc(=O)n2c3ccccc3c3ccnc1c32`, the T/C (dose: 80.0 mg/kg/injection, schedule: Q04DX003 (sc), vehicle: saline with Tween-80) is 56 % of control; the T/C (dose: 160.0 mg/kg/injection, schedule: Q04DX003 (sc), vehicle: saline with Tween-80) is 64 % of control; the T/C (dose: 320.0 mg/kg/injection, schedule: Q04DX003 (sc), vehicle: saline with Tween-80) is 107 % of control.
For `CCOC(=O)N(C)N=NC`, the T/C by setting is: (dose: 7.5 mg/kg/injection, schedule: Q04DX003 (ip), vehicle: saline) 57 % of control; (dose: 15.0 mg/kg/injection, schedule: Q04DX003 (ip), vehicle: saline) 51 % of control; (dose: 60.0 mg/kg/injection, schedule: Q04DX003 (ip), vehicle: saline) 14 % of control and 24 % of control.
`Cc1c(CNc2ccc(C(=O)NC(CC(=O)O)C(=O)O)cc2)ccc2nc(N)nc(N)c12` (stereo not given): the T/C was 100 % of control (dose: 12.5 mg/kg/injection, schedule: Q04DX003 (sc), vehicle: saline with Tween-80); 71 % of control (dose: 25.0 mg/kg/injection, schedule: Q04DX003 (sc), vehicle: saline with Tween-80); 32 % of control (dose: 50.0 mg/kg/injection, schedule: Q04DX003 (sc), vehicle: saline with Tween-80).
With `c1cc2n(n1)CCN2`, the T/C is 107 % of control (dose: 50.0 mg/kg/injection, schedule: Q01DX010 (ip), vehicle: saline); 26 % of control under setting [3]; 70 % of control (dose: 100.0 mg/kg/injection, schedule: Q01DX010 (ip), vehicle: saline); 12 % of control under setting [1]; 170 % of control (dose: 166.66 mg/kg/injection, schedule: Q04DX003 (sc), vehicle: saline); -33 % of control under setting [2]. The T/C reads like this: (dose: 333.33 mg/kg/injection, schedule: Q04DX003 (sc), vehicle: saline) 150 % of control; (dose: 666.65 mg/kg/injection, schedule: Q04DX003 (sc), vehicle: saline) 59 % of control.
As for `O=C(Nc1cc(Cl)ccc1C(=O)O)c1cccc(C[n+]2ccccc2)c1`, the T/C is, setting by setting: (dose: 150.0 mg/kg/injection, schedule: Q04DX003 (ip), vehicle: saline with Tween-80) 67 % of control; (dose: 300.0 mg/kg/injection, schedule: Q04DX003 (ip), vehicle: saline with Tween-80) 100 % of control.
Consider `CNC(=O)ON(C(C)=O)C(=O)NC`, for which the T/C is 49 % of control (dose: 25.0 mg/kg/injection, schedule: Q01DX010 (sc), vehicle: saline); 85 % of control under setting [3]; 41 % of control under setting [1].
For `COCC(O)Cn1ccnc1[N+](=O)[O-]` (stereo not given), the T/C (dose: 2400.0 mg/kg/injection, schedule: Q04DX003 (sc), vehicle: suspension in saline) is 104 % of control.
As for `COc1cccc2c1C(=O)c1c(O)c3c(c(O)c1C2=O)CC(O)(/C(C)=N/NC(=O)CCC(=O)N/N=C(\C)C1(O)Cc2c(O)c4c(c(O)c2C(OC2CC(N)C(O)C(C)O2)C1)C(=O)c1c(OC)cccc1C4=O)CC3OC1CC(N)C(O)C(C)O1` (stereo not given), the T/C is, setting by setting: (dose: 6.25 mg/kg/injection, schedule: Q01DX010 (sc), vehicle: water) 65 % of control; (dose: 12.5 mg/kg/injection, schedule: Q01DX010 (sc), vehicle: water) 23 % of control.
